Assay results from patent publication US10703757B2, “Compounds and methods for CDK8 modulation and indications therefor” (Plexxikon Inc., priority 2016, dated 2020).

Assays:
[1] = tested on: CDK8 (TCF/LEF luciferase reporter in HCT116 cells); experiment: Cell based TCF/LEF reporter assay (HCT116+TCF/LEF luciferase); details: Homo sapiens, HCT-116, 24 h
Method in brief: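 Luciferase readout was corrected for viability (CellTiter-Fluor) and scaled between DMSO high and 10 uM CCT251545 low controls, giving IC50 by nonlinear regression. Compounds, serially diluted, were incubated 24 h at 37 °C on HCT116 clones stably expressing a TCF/LEF-driven luciferase reporter.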

[2] = tested on: CDK8 (phosphorylation of STAT1 at serine 727 in A549 cells); experiment: Cell based Phospho-STAT1 assay (IFNγ-stimulated A549 cells, AlphaLISA); details: Homo sapiens, A549, A549 cells, phospho-STAT1 after IFNγ stimulation
Method in brief: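 A549 cells given serial compound dilutions for 1 h at 37 °C, then stimulated with IFNγ at 10 ng/mL final for 30 min. Lysate STAT1 Ser727 phosphorylation measured by AlphaLISA; % inhibition vs stimulated/unstimulated DMSO controls, IC50 by nonlinear regression.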

Row | Structure (SMILES) | IC50 [1] | IC50 [2]
1 | N#CC1CC=C(c2c(-c3ccc4c(c3)OCC(=O)N4)cnc3[nH]ccc23)CC1 (centres unmarked) [Compound P-0205, 4-(5-(3-oxo-3,4-dihydro-2H-benzo[b][1,4]oxazin-7-yl)-1H-pyrrolo[2,3-b]pyridin-4-yl)cyclohex-3-ene-1-carbonitrile] | 0.1 to 100 nM | 100 to 1000 nM
2 | CC(C)(O)Cn1cc(-c2ccc(-c3cnn4ccnc(C5CCC(C#N)CC5)c34)cn2)cn1 (centres unmarked) [Compound P-0459, (1s,4s)-4-(3-(6-(1-(2-hydroxy-2-methylpropyl)-1H-pyrazol-4-yl)pyridin-3-yl)pyrazolo[1,5-a]pyrazin-4-yl)cyclohexane-1-carbonitrile] | 0.1 to 100 nM | 0.1 to 100 nM
3 | Cc1nc2cc(-c3cnn4ccnc(C5=CCC(C#N)CC5)c34)ccc2[nH]1 (centres unmarked) [Compound P-0056, 4-(3-(2-methyl-1H-benzo[d]imidazol-5-yl)pyrazolo[1,5-a]pyrazin-4-yl)cyclohex-3-ene-1-carbonitrile] | 0.1 to 100 nM | 0.1 to 100 nM
4 | CC(C)(O)Cn1cc(-c2ccc(-c3cnn4ccnc(C5CCC(C#N)CC5)c34)cc2F)cn1 (centres unmarked) [Compound P-0032, (1s,4s)-4-(3-(3-fluoro-4-(1-(2-hydroxy-2-methylpropyl)-1H-pyrazol-4-yl)phenyl)pyrazolo[1,5-a]pyrazin-4-yl)cyclohexane-1-carbonitrile] | 0.1 to 100 nM | 0.1 to 100 nM
5 | N#CC1CC=C(c2cccn3ncc(-c4ccc(-n5cccn5)cc4)c23)CC1 (centres unmarked) [Compound P-0225, 4-(3-(4-(1H-pyrazol-1-yl)phenyl)pyrazolo[1,5-a]pyridin-4-yl)cyclohex-3-ene-1-carbonitrile] | 0.1 to 100 nM | 0.1 to 100 nM
6 | N#CC1CC=C(c2nccn3ncc(-c4ccc5[nH]ncc5c4)c23)CC1 (centres unmarked) [Compound P-0070, 4-(3-(1H-indazol-5-yl)pyrazolo[1,5-a]pyrazin-4-yl)cyclohex-3-ene-1-carbonitrile] | 0.1 to 100 nM | 0.1 to 100 nM
7 | N#CCCn1cc(-c2ccc(-c3cnn4ccnc(C5=CCC(C#N)CC5)c34)cc2F)cn1 (centres unmarked) [Compound P-0030, 4-(3-(4-(1-(2-cyanoethyl)-1H-pyrazol-4-yl)-3-fluorophenyl)pyrazolo[1,5-a]pyrazin-4-yl)cyclohex-3-ene-1-carbonitrile] | 0.1 to 100 nM | 0.1 to 100 nM
8 | N#CC1CC=C(c2cccn3ncc(-c4cc5ccccc5s4)c23)CC1 (centres unmarked) [Compound P-0121, 4-(3-(benzo[b]thiophen-2-yl)pyrazolo[1,5-a]pyridin-4-yl)cyclohex-3-ene-1-carbonitrile] | 0.1 to 100 nM | 0.1 to 100 nM
9 | N#CC1CC=C(c2cccn3ncc(-c4ccc5nccnc5c4)c23)CC1 (centres unmarked) [Compound P-0122, 4-(3-(quinoxalin-6-yl)pyrazolo[1,5-a]pyridin-4-yl)cyclohex-3-ene-1-carbonitrile] | 0.1 to 100 nM | 0.1 to 100 nM

Now from value to molecule:

Row | IC50 [1] | IC50 [2] | Structure (SMILES)
10 | 0.1 to 100 nM | 0.1 to 100 nM | CCCS(=O)(=O)Nc1ccc2cc(-c3cnn4ccnc(C5CCC(C#N)CC5)c34)ccc2c1 (centres unmarked) [Compound P-0061, N-(6-(4-((1s,4s)-4-cyanocyclohexyl)pyrazolo[1,5-a]pyrazin-3-yl)naphthalen-2-yl)propane-1-sulfonamide]
11 | 100 to 1000 nM | 1000 to 10000 nM | Cc1ccncc1-c1ccc(-c2cnn3cccc(C#CC(C)(C)O)c23)cc1 [Compound P-0233, 2-methyl-4-(3-(4-(4-methylpyridin-3-yl)phenyl)pyrazolo[1,5-a]pyridin-4-yl)but-3-yl-2-ol]
12 | 0.1 to 100 nM | 0.1 to 100 nM | COC(=O)c1ccc(-c2cnn3cccc(C4=CCC(C#N)CC4)c23)cc1C (centres unmarked) [Compound P-0123, methyl 4-(4-(4-cyanocyclohex-1-en-1-yl)pyrazolo[1,5-a]pyridin-3-yl)-2-methylbenzoate]
13 | 100 to 1000 nM | 0.1 to 100 nM | N#CC1CC=C(c2cccn3ncc(-c4ccc5cccnc5c4)c23)CC1 (centres unmarked) [Compound P-0124, 4-(3-(quinolin-7-yl)pyrazolo[1,5-a]pyridin-4-yl)cyclohex-3-ene-1-carbonitrile]
14 | 100 to 1000 nM | 100 to 1000 nM | CC(C)(C)C(=O)Nc1ccc(-c2cnn3cccc(N4CCC(C#N)CC4)c23)cc1 [Compound P-0254, N-(4-(4-(4-cyanopiperidin-1-yl)pyrazolo[1,5-a]pyridin-3-yl)phenyl)pivalamide]
15 | 100 to 1000 nM | 100 to 1000 nM | Cc1nc2ccc(-c3cnn4cccc(C#CC(C)(C)O)c34)cc2s1 [Compound P-0215, 2-methyl-4-(3-(2-methylbenzo[d]thiazol-6-yl)pyrazolo[1,5-a]pyridin-4-yl)but-3-yn-2-ol]
16 | 0.1 to 100 nM | 0.1 to 100 nM | CCCS(=O)(=O)Nc1ccc2cc(-c3cnn4ccnc(C#CC(C)(C)C(N)=O)c34)ccc2c1 [Compound P-0069, 2,2-dimethyl-4-(3-(6-(propylsulfonamido)naphthalen-2-yl)pyrazolo[1,5-a]pyrazin-4-yl)but-3-ynamide]
17 | 0.1 to 100 nM | 0.1 to 100 nM | CNC(=O)c1ccc2cc(-c3cnn4cccc(C#CC(C)(C)O)c34)ccc2c1 [Compound P-0222, 6-(4-(3-hydroxy-3-methylbut-1-yn-1-yl)pyrazolo[1,5-a]pyridin-3-yl)-N-methyl-2-naphthamide]
18 | 0.1 to 100 nM | 0.1 to 100 nM | Cn1cc(-c2ccc(-c3cnn4ccnc(C#CC(C)(C)C(N)=O)c34)cc2)cn1 [Compound P-0003, 2,2-dimethyl-4-(3-(4-(1-methyl-1H-pyrazol-4-yl)phenyl)pyrazolo[1,5-a]pyrazin-4-yl)but-3-ynamide]
19 | 100 to 1000 nM | 100 to 1000 nM | CC(C)(O)C#Cc1cccn2ncc(-c3cnn(-c4ccc(F)cc4)c3)c12 [Compound P-0283, 4-(3-(1-(4-fluorophenyl)-1H-pyrazol-4-yl)pyrazolo[1,5-a]pyridin-4-yl)-2-methylbut-3-yn-2-ol]
